This is an account of results in article PMC11989107, “Biochemical and Structural Characterization of a Highly Glucose-Tolerant β-Glucosidase from the Termite Reticulitermes perilucifugus” (International Journal of Molecular Sciences, 2025).

Assay [1] addresses T1, RpBgl8 (Reticulitermes perilucifugus, UniProt A0A7G5VX36).
T1 construct: forward primer encodes MSALKF
In words: pNPG hydrolysis with added glucose. It counts as biochemical.

The target of assay [2] is T2, RpBgl8 (Reticulitermes perilucifugus, UniProt A0A7G5VX36, F124W).
T2 construct: forward primer encodes MSALKF
T2 sequence (A0A7G5VX36 entry or part of it F124W): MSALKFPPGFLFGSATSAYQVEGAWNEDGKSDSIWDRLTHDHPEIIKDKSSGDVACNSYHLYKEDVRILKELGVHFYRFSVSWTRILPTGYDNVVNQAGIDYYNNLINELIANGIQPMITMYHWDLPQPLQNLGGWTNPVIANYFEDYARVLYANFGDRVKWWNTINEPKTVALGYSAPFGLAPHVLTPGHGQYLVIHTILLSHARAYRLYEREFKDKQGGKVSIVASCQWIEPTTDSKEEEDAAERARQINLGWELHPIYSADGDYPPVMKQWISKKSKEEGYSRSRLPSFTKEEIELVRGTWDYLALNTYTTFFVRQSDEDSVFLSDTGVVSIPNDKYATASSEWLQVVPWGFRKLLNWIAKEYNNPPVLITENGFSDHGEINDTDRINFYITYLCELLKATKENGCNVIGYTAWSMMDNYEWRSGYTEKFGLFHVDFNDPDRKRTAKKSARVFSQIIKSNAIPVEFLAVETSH
In words: pNPG hydrolysis with added glucose. Format: biochemical. As to conditions: 5 mM pNPG, phosphate buffer pH 7.0, 37 °C, reference of the reduction (no glucose or wild type) not told.

T1 sequence (A0A7G5VX36 entry or part of it): as the sequence (A0A7G5VX36 entry or part of it F124W) above, with W124F counted along it

For the molecule `OC[C@H]1OC(O)[C@H](O)[C@@H](O)[C@@H]1O` (some centres unmarked) [glucose], at RpBgl8 [1], the activity at 4 M was 82%. Also, the “% reduction of activity at 4.0 M glucose” value at RpBgl8 [2] is on record as 54.2%.
